The numbers were not newly measured in patent publication US10822301B2, “3-carbon substituted 4-aminocyclopent-1-ene-1-carboxylic acid compounds as inhibitors of gamma-aminobutyric acid (GABA) aminotransferase” (Northwestern University, priority 2018, dated 2020), which cites them from elsewhere.

Data set [1] relates to cocaine addiction in humans. The settings on record: 9-week double-blind trial.
Data set [2] relates to epilepsy patients. The settings on record: long-term administration, share of epilepsy patients.

On to `C=CC(N)CCC(=O)O` (centres unmarked) [vigabatrin], for which, in data set [1], the patients achieving abstinence result is on record as “up to 28%”. In data set [2], the “permanent vision loss (damage of the retinal nerve fiber layer)” value is recorded as 25-40%.
